Experiments:
[1] = tested on: BALB/c mice; assay: OVA-specific IgG after immunization (indirect ELISA); format: in vivo; conditions: OVA 100 μg alone, s.c. Days 1 and 15, sera 2 weeks after last immunization
Description: Male BALB/c mice were immunized subcutaneously with OVA 100 μg alone or with OVA 100 μg dissolved in saline containing analogues (7.5, 15 or 30 μg) on Days 1 and 15. Sera were collected 2 weeks after the last immunization. OVA-specific IgG antibodies in the sera were measured by an Indirect ELISA. The values are presented as log 2 titre.

[2] = tested on: BALB/c mice; assay: Total IgG1 and IgG2a after immunization (sandwich ELISA); format: in vivo; conditions: OVA 100 μg alone
Description: Male BALB/c mice were immunized subcutaneously with OVA 100 μg alone or with OVA 100 μg dissolved in saline containing analogues (7.5, 15 or 30 μg) on Days 1 and 15. Sera were collected 2 weeks after the last immunization. Total IgG1 and IgG2a antibodies in the sera were measured by Sandwich ELISA. The values are presented as log 2 titre.

OVA: Ovalbumin (OVA) antigen, given alone
Log(2) IgG Antibody Titre [1]: 12.64 | Log(2) Total IgG1 Antibody Titre [2]: 14.39 | Log(2) Total IgG2a Antibody Titre [2]: 11.89
